Results as given in patent US12084680B2, “Methods for efficient derivation of human motor neurons from diverse spinal regions” (Wisconsin Alumni Research Foundation, priority 2016, dated 2024).

Test system: H9 hESCs
Experiment: Induction of NKX6.1+/PAX6+/OLIG2+ motor neuron progenitors from cervical neuromesoderm (flow cytometry, immunocytochemistry)
Format: cell-based, human
Procedure: To begin, we sequentially differentiated H9 hESCs in E6 media for 1 day, and FGF8b (200 ng/mL) for 1 day, and FGF8b and CHIR (3 μM) for 2 days to generate cervical neuromesoderm (FIGS. 5A-5B). Then, we screened the effects of CHIR, PM, and SHH treatment on NKX6.1^+/PAX6^+/OLIG2^+ motor neuron progenitor induction while transitioning to media containing 1 μM RA (FIGS. 5A-5D). Prior to the addition of RA, NKX6.1 was expressed in the cervical neuromesodermal state at day 4 (80±18% NKX6.1^+; data not shown), likely due to the CHIR-induced Wnt/β-catenin signaling (FIGS. 4A-4H). Transitioning the neuromesodermal progenitors to RA-containing media for 2 days induced HOXB4^+/HOXC6^+/HOXC9^−/HOXD10^−/PAX6^+ cervical neuroectoderm in all conditions (FIGS. 5B-5C), as expected. However, without co-activation of SHH signaling by PM or SHH, NKX6.1 expression was quickly lost by day 6 (97±1% PAX6^+, 17±3% NKX6.1^+) (FIG. 5C). […] To bolster this claim, we also analyzed the abundance of full-length GLI3 versus its truncated repressor form by western blot. […] Thus, Wnt/β-catenin signaling is necessary to induce ventral identity, but its continuous activation during OLIG2 induction by SHH signaling is detrimental to motor neuron differentiation, possibly due to activation of the GLI3 repressor.
Next, we tested conditions where CHIR was removed after transitioning to media containing RA (1 μM), PM (2 μM), and SHH (2 μg/mL) (FIGS. 5A-5C).
Since NKX6.1 is a pre-requisite to OLIG2 expression, we hypothesized that the Wnt/β-catenin signaling-dependent NKX6.1 expression levels may still be too low for efficient OLIG2^+ motor neuron progenitor induction. Therefore, the concentration of CHIR was boosted to 6 or 9 μM for 6 h immediately prior to transitioning to E6 medium containing RA, PM, and SHH without CHIR (FIG. 5A). The 9 μM CHIR boost followed by a transition to media containing 1 μM RA, 2 μM PM, and 2 μg/mL SHH yielded optimal motor neuron progenitor cultures with highly uniform NKX6.1, OLIG2, and PAX6 expression (96±1%, 85±9%, and 97±2%, respectively) (FIGS. 5C-5D).
hESCs were dissociated with accutase (Thermo Fisher Scientific) and reseeded at 1×10^5 cells/cm2 in E8 medium containing 10 μM ROCK inhibitor (Y27632; R&D Systems) on 6-well polystyrene tissue culture plates coated with 100 μg/mL poly-L-ornithine (PLO; Sigma) and 8 μg/well VTN-NC. The timelines and relevant growth factors/small molecules for all differentiation procedures are described in detail in the Results section and its accompanying figures. Cells were differentiated for various amounts of time in E6 medium containing the same insulin concentration as E8 medium as described above with varying combinations of soluble factors (product information and concentration ranges are found in Table 2). For neuromesodermal induction and HOX propagation, cells were sequentially cultured with FGF8b, CHIR99021 (CHIR), GDF11, and dorsomorphin (DM) as previously described. Briefly, to initiate the neuromesodermal state, cells were changed to E6 medium followed by addition of FGF8b (200 ng/ml) 24 h later. To generate cervical neuromesodermal progenitors, cells were washed with PBS, treated with accutase, and re-seeded in E6 medium containing 200 ng/ml FGF8b, 3 μM CHIR, and 10 μM Y27632 on VTN-NC-coated plates at a density of 1.5×10^5 cells/cm^2 for 48 h. To generate thoracic neuromesodermal progenitors, cells were passaged again after 72 h of CHIR treatment and re-seeded at different densities as described in the text.
Thoracic identity was reached after an additional 24 h. Then, to reach the lumbosacral level, cells were given 30 ng/ml GDF11 and 1 μM DM for an additional 48 h. For neuroectoderm induction and generation of OLIG2^+ progenitors, FGF8b was removed at the designated time points and the concentration of CHIR was increased for 6 h as described in the text, followed by a transition to media containing RA, PM, and SHH for a period of 48 h. […]

[1] = 9 μM CHIR boost 6 h, then 1 μM RA, 2 μM PM, 2 μg/mL SHH without CHIR, day 6
[2] = CHIR continued at 3 μM with RA, PM 2 μM, SHH 2 μg/mL, day 6
[3] = CHIR continued at 6 μM with RA, PM, SHH, day 6

Cc1c[nH]c(-c2cnc(NCCNc3ccc(C#N)cn3)nc2-c2ccc(Cl)cc2Cl)n1 [CHIR, CHIR99021]
NKX6.1 expression [1]: 96±1% | OLIG2 expression [1]: 85±9% | PAX6 expression [1]: 97±2% | NKX6.1 and PAX6/SOX2 neuroectoderm marker expression [2]: uniformly expressed | OLIG2 induction [2]: minimal OLIG2 was induced | OLIG2 induction [3]: OLIG2 was still not induced | PAX6 expression [3]: PAX6 expression was diminished | PAX7 detection [3]: no PAX7 was detected | NKX6.1+ cells in cervical neuromesodermal state (FGF8b 200 ng/mL and CHIR 3 μM for 2 days, day 4, before RA): 80±18%
